In article PMC7821884, “BRAF inhibition protects against hearing loss in mice” (Science Advances, 2020):

Legend:
[1] = cited from earlier work
[2] = test system: Tg(brn3c:GFP) zebrafish larvae neuromast HCs; test: Zebrafish lateral line neuromast hair cell loss after cisplatin; assay type: in vivo
Source text: Lateral line neuromasts of zebrafish are a well-established model for the study of drug protection from cisplatin or aminoglycoside toxicity because their HCs are considered homologous to mammalian HCs and readily accessible to compounds in vivo ([47]–[49]). As in our previous studies, MI1 (medial neuromast 1) and O1-2 (otic line) neuromasts were examined in Tg(brn3c:GFP) zebrafish larvae 5 days after fertilization ([50], [51]). […] Green fluorescent protein (GFP) (brn3c) and otoferlin staining were used to identify neuromast HCs. In fig.
Zebrafish (D. rerio) experimental larvae of either sex were obtained by pair mating of adult fish maintained at Boys Town National Research Hospital. We used zebrafish line Tg(brn3c:GFP) that expresses a membrane-bound GFP in HCs. Fish were maintained at 28.5°C in E3 media [5 mM NaCl, 0.17 mM KCl, 0.33 mM CaCl2, and 0.33 MgSO4 (pH 7.2)] at a density of 50 embryos/larvae per […] petri dish. Experimental animals were used at 5 days post-fertilization and cryo-anesthetized after treatment and before fixation. Average HC counts in our studies were obtained from the following three neuromasts: MI1 (medial neuromast 1) and O1 and O2 (otic line).

[3] = test system: human neuroblastoma and lung carcinoma cell lines; test: Tumor Cell Titer-Glo viability assay, interference with cisplatin tumor killing (six cell lines); assay type: cell-based; conditions: compound at 3× protective IC50 (dabrafenib 35 μM, AZD5438 […]) + 15 μM cisplatin (200 μM for A549), 48 hours
Source text: In clinical settings, cisplatin is used to treat several tumor types, including neuroblastoma and lung carcinoma. […] Medium-alone–, cisplatin-alone–, and dabrafenib-alone–treated cells were used as controls, and viability was reported as percent survival compared to medium alone (Fig. 4E).
Three human neuroblastoma cell lines IMR-32, SH-SY5Y, and, SK-N-AS, as well as three human lung carcinoma cell lines SHP-77 small cell, H1155 non–small cell, and A549 non–small cell, were used to determine the compounds’ effect on cisplatin’s tumor-killing efficacy ([77]–[83]). Cell lines were purchased from the American Type Culture Collection (ATCC), and cell culture was conducted according to ATCC specifications. Neuroblastoma cell lines IMR-32 and SH-SY5Y are maintained in Dulbecco’s modified Eagle’s medium (DMEM) 1× with glucose (4.5 g/liter), L-glutamine, and sodium pyruvate (10-013-CV, Corning) with 10% fetal bovine serum (FBS) (35011132, Corning) and ampicillin (50 μg/ml; A5354-10ML, Sigma-Aldrich) added. The SK-N-AS cell line is maintained in DMEM 1× with D-glucose (4.5 g/liter), L-glutamine, and 25 mM Hepes (12430-054, Gibco) with 10% FBS, 0.1 mM nonessential amino acids, and ampicillin (50 μg/ml) added. A549 cells are maintained in F-12K medium with L-glutamine (30-2004, ATCC) with 10% FBS and ampicillin (50 μg/ml) added. […]

[4] = test system: phosphorylated ERK (pERK); test: pERK immunostaining of cisplatin-treated cochlear explants; assay type: cell-based, mouse; conditions: 3 μM, 1 hour pretreatment, 10 min 150 μM cisplatin
Source text: Tissue samples were then imaged via confocal microscopy.

[5] = design: method as in PMID 29039591, PMID 31818130; conditions: cited from earlier work

For `CC(C)(C)c1nc(-c2cccc(NS(=O)(=O)c3c(F)cccc3F)c2F)c(-c2ccnc(N)n2)s1` [dabrafenib], the half-life in circulation [1] is listed as “roughly 8 hours”, the “protection from cisplatin-induced neuromast HC loss” value ([2]; 1 hour pretreatment, 6 hours 400 μM cisplatin, dabrafenib 100 nM) is listed as “significant protection” and the “toxic effect of compound alone on neuromast HCs” value ([2]; all concentrations tested) is listed as “no toxic effect”. For the same compound, the “effect on cisplatin-induced tumor cell death” value [3] was “no inhibitory effect”, the “effect on cisplatin-induced ERK phosphorylation in DC and IPhC regions” value [4] was “prevented ERK activation” and the blood-brain barrier penetration [5] was “penetrates the blood-brain barrier”.
